Structures are written as SMILES. Structures can show the parent of a compound that is named as a salt. Where only a bound is given, the exact number is not on record here.

The target of this assay is T1, human M1 muscarinic acetylcholine receptors (Homo sapiens, UniProt P11229).
T1 sequence (P11229 1-460): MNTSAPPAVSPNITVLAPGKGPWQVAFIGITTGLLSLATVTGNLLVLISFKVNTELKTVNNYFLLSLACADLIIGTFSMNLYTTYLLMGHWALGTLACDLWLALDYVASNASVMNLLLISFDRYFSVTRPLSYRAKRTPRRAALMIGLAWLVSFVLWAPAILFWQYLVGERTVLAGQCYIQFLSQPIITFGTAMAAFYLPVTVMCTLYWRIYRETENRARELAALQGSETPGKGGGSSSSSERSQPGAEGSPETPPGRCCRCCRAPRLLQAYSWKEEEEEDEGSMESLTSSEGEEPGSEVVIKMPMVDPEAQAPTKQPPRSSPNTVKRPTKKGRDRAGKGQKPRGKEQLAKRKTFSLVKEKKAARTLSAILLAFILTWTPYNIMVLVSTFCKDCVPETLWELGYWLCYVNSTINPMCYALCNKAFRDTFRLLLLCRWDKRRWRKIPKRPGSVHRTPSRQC
Nature of the assay: M1 FLIPR assay (PAM, intracellular calcium). The format is cell-based. The note with it: potentiation of EC10-EC30 acetylcholine, values marked a: geometric mean of ≧7 determinations, read-out: M1 PAM Inflection Point (μM) Geometric mean of 2-6 determinations (unless otherwise indicated). The method, then:
This assay was designed to select and characterize compounds that affect the activity of human M1 muscarinic acetylcholine receptors (Similar M1 PAM FLIPR assays can be found, for example, at U.S. Pat. No. 8,664,234). Human M1 receptors were stably expressed in Chinese hamster ovary (CHO) cells (HD Bioscience). The effect of test compounds on intracellular calcium was measured on an FLIPR Tetra (Molecular Devices) using the Fluo-8, AM calcium dye (Molecular Probes) with a red dye quenching agent (Sigma).
CHO cells expressing hM1 cells had been previously cultured and frozen in assay ready vials. Cell vials were thawed, then plated at a density of 10,000 cells per well in a 384 well black wall, clear bottom plate (Greiner #781090) and incubated overnight at 37 degrees C. with 5% CO2. Cells were grown and plated in F12 nutrient media (Gibco BRL #21700-075) supplemented with 10% FBS (Hyclone #CH30160.03) and Pen/Strep (Gibco #15070-063).
After overnight incubation, cell plates were removed from the incubator and the growth media was discarded and replaced with loading solution containing the following: 2 μM Fluo-8-AM (Molecular Probes #F14242), 2 mM Probenecid (Sigma #P8761), lx Acid Red 1 (Sigma #210633), in HBSS buffer containing (grams/L): 0.1 CaCl2, 0.1 MgCl2*6H2O, 0.049 MgSO4, 0.4 KCl, 0.06 KH2PO4, 8.06 NaCl, 0.12 Na2HPO4*12H2O, 1.1 D-glucose*H2O, 0.35 NaHCO3, 4.766 HEPES, pH 7.4. The plate was incubated in the loading solution at 37 degrees C. in the dark for 1 hour.
Test compounds were initially prepared as 100% DMSO stock solutions, then transferred and serially diluted in 384-well compound plates (Greiner #784201). Each compound was tested at 10 concentrations in duplicate per experiment. Positive and negative controls for positive allosteric modulator evaluation were 30 μM acetylcholine (Ach) and an EC10-EC30 concentration of acetylcholine, approximately 2 nM but could be adjusted for each experiment to maintain the EC10-EC30 range.
After the 1-hour dye loading incubation, test compounds were added to the cell plate containing Fluo-8. Approximately 10 minutes after compound addition, an EC10-EC30 concentration of acetylcholine was added to each well and the fluorescence measured to determine the PAM potentiation of the compound.
Data was exported from the FLIPR Tetra as maximum fluorescence/minimum fluorescence for each well. The percent effect for each compound well was determined using the mean values for the positive and negative controls on each plate for each read. Percent effect was 100*(compound negative control)/(positive control negative control). Dose response curves were fitted to the compound percent effect data using a 4-parameter logistic fit model to determine PAM (positive allosteric modulator) Inflection Point values. Compounds with inverted U dose response curves had the concentrations greater than the concentration giving the peak response excluded from the fit. Data was reported as Inflection Point. The compounds of Examples 1-72 had activity according to this assay, generally with an Inflection Point (IP) of 10 μM or less (using Inflection Point as a measure of activity). Such a result is indicative of the intrinsic activity of the compounds of the invention as M1 allosteric modulators.
On the technique in general: Calcium flux is commonly read through the fluorescence of an indicator in the cells.
Regarding `Cc1cnc(C(=O)N[C@H]2CCOC[C@@H]2O)cc1Cc1ccc(-c2cnn(C)c2)cc1F` [Example 2, 4-[2-Fluoro-4-(1-methyl-1H-pyrazol-4-yl)benzyl]-N-[(3R,4S)-3-hydroxytetrahydro-2H-pyran-4-yl]-5-methylpyridine-2-carboxamide], the EC50 stood at 0.125 µM.
On to `Cc1cnc(C(=O)N[C@H]2CCOC[C@@H]2O)cc1Cc1ccc(-c2nccs2)cc1` [Example 3, N-[(3R,4S)-3-Hydroxytetrahydro-2H-pyran-4-yl]-5-methyl-4-[4-(1,3-thiazol-2-yl)benzyl]pyridine-2-carboxamide], for which the EC50 amounted to 0.101 µM.
As for `Cc1cnc(C(=O)N[C@H]2CCOC[C@@H]2O)cc1Cc1ccc(-c2ccn(C)n2)cc1` [Example 6, N-[(3R,4S)-3-Hydroxytetrahydro-2H-pyran-4-yl]-5-methyl-4-[4-(1-methyl-1H-pyrazol-3-yl)benzyl]pyridine-2-carboxamide], the figure is 0.142 µM; as for `Cc1cnc(C(=O)N[C@H]2CCOC[C@@H]2O)cc1Cc1ccc(-c2cscn2)cc1` [Example 7, N-[(3R,4S)-3-Hydroxytetrahydro-2H-pyran-4-yl]-5-methyl-4-[4-(1,3-thiazol-4-yl)benzyl]pyridine-2-carboxamide], 0.06 µM.
As to `Cc1cnc(C(=O)N[C@@H]2CCOC[C@H]2O)cc1Cc1ccc(-n2cccn2)cc1` [Example 8, N-[(3S,4R)-3-Hydroxytetrahydro-2H-pyran-4-yl]-5-methyl-4-[4-(1H-pyrazol-1-yl)benzyl]pyridine-2-carboxamide], the EC50 was found to be 4.86 µM.
Regarding `Cc1cnc(C(=O)N[C@H]2CCOC[C@@H]2O)cc1Cc1ccc(-n2cccn2)cc1` [Example 9, N-[(3R,4S)-3-Hydroxytetrahydro-2H-pyran-4-yl]-5-methyl-4-[4-(1H-pyrazol-1-yl)benzyl]pyridine-2-carboxamide], the EC50 was found to be 0.109 µM.
As for `Cc1nc(C(=O)N[C@H]2CCOC[C@@H]2O)cc(Cc2ccc(-n3cccn3)cc2)c1Cl` [Example 14, 5-Chloro-N-[(3R,4S)-3-hydroxytetrahydro-2H-pyran-4-yl]-6-methyl-4-[4-(1H-pyrazol-1-yl)benzyl]pyridine-2-carboxamide], the figure is 0.116 µM; as for `COc1cnc(C(=O)N[C@H]2CCOC[C@@H]2O)cc1Cc1ccc(-n2cccn2)cc1` [Example 15, N-[(3R,4S)-3-Hydroxytetrahydro-2H-pyran-4-yl]-5-methoxy-4-[4-(1H-pyrazol-1-yl)benzyl]pyridine-2-carboxamide], 0.065 µM.
Regarding `Cc1cnc(C(=O)NC[C@@H]2CCCO2)cc1Cc1ccc(-n2cccn2)cc1` [Example 16, 5-Methyl-4-[4-(1H-pyrazol-1-yl)benzyl]-N-[(2S)-tetrahydrofuran-2-ylmethyl]pyridine-2-carboxamide, formate salt], the EC50 is 1.82 µM.
`Cc1nc(C(=O)N[C@H]2CCCC[C@@H]2O)cc(Cc2ccc(-n3cccn3)cc2)c1Cl` [Example 17, 5-Chloro-N-[(1S,2S)-2-hydroxycyclohexyl]-6-methyl-4-[4-(1H-pyrazol-1-yl)benzyl]pyridine-2-carboxamide]: the EC50 was 0.191 µM.
The same measure for `Cc1cnc(C(=O)N[C@H]2CCCC[C@@H]2O)cc1Cc1ccc(-n2cccn2)cc1` [Example 18, N-[(1S,2S)-2-Hydroxycyclohexyl]-5-methyl-4-[4-(1H-pyrazol-1-yl)benzyl]pyridine-2-carboxamide]: 0.092 µM; for `Cc1nc(-c2ccc(Cc3cc(C(=O)N[C@H]4CCOC[C@@H]4O)ncc3C)cc2)no1` [Example 19, N-[(3R,4S)-3-hydroxytetrahydro-2H-pyran-4-yl]-5-methyl-4-[4-(5-methyl-1,2,4-oxadiazol-3-yl)benzyl]pyridine-2-carboxamide]: 5.57 µM; for `CO[C@H]1CCCC[C@@H]1NC(=O)c1cc(Cc2ccc(-n3cccn3)cc2)c(C)cn1` [Example 22, N-[(1S,2S)-2-methoxycyclohexyl]-5-methyl-4-[4-(1H-pyrazol-1-yl)benzyl]pyridine-2-carboxamide]: greater than 5.99 µM.
As for `Cc1nc(-c2ccc(Cc3cc(C(=O)N[C@H]4CCCC[C@@H]4O)ncc3C)cc2)co1` [Example 23, N-[(1S,2S)-2-hydroxycyclohexyl]-5-methyl-4-[4-(2-methyl-1,3-oxazol-4-yl)benzyl]pyridine-2-carboxamide], the figure is 0.363 µM; as for `Cc1cnc(NC(=O)c2cc(Cc3ccc(-n4cccn4)cc3)c(C)cn2)nc1` [Example 24, 5-methyl-N-(5-methylpyrimidin-2-yl)-4-[4-(1H-pyrazol-1-yl)benzyl]pyridine-2-carboxamide], 4.39 µM.
As for `COc1ccc(Cc2cc(C(=O)N[C@H]3CCCC[C@@H]3O)nc(C)c2Cl)cc1` [Example 25, 5-chloro-N-[(1S,2S)-2-hydroxycyclohexyl]-4-(4-methoxybenzyl)-6-methylpyridine-2-carboxamide], the figure is 1.14 µM; as for `Cc1cnc(C(=O)N[C@H]2C[C@H](CO)C2)cc1Cc1ccc(-n2cccn2)cc1` [Example 26, N-[trans-3-(hydroxymethyl)cyclobutyl]-5-methyl-4-[4-(1H-pyrazol-1-yl)benzyl]pyridine-2-carboxamide], 5.04 µM.
With `Cc1cnc(C(=O)NCC2(O)CCCC2)cc1Cc1ccc(-n2cccn2)cc1` [Example 27, N-[(1-hydroxycyclopentyl)methyl]-5-methyl-4-[4-(1H-pyrazol-1-yl)benzyl]pyridine-2-carboxamide], the EC50 worked out at 1.55 µM.
The same measure for `Cc1cnc(C(=O)NC2CC3(COC3)C2)cc1Cc1ccc(-n2cccn2)cc1` [Example 28, 5-methyl-N-(2-oxaspiro[3.3]hept-6-yl)-4-[4-(1H-pyrazol-1-yl)benzyl]pyridine-2-carboxamide]: 4.77 µM; for `Cc1cnc(C(=O)N[C@H]2CC[C@@H](O)CC2)cc1Cc1ccc(-n2cccn2)cc1` [Example 29, N-(cis-4-hydroxycyclohexyl)-5-methyl-4-[4-(1H-pyrazol-1-yl)benzyl]pyridine-2-carboxamide]: 3.82 µM; for `Cc1cnc(C(=O)N[C@H]2C[C@@](C)(O)C2)cc1Cc1ccc(-n2cccn2)cc1` [Example 30]: 1.12 µM.
Take `Cc1noc(CNC(=O)c2cc(Cc3ccc(-n4cccn4)cc3)c(C)cn2)n1` [Example 31, 5-methyl-N-[(3-methyl-1,2,4-oxadiazol-5-yl)methyl]-4-[4-(1H-pyrazol-1-yl)benzyl]pyridine-2-carboxamide]: the EC50 stood at 8.63 µM.
As for `Cc1cnc(C(=O)NCC2CCOCC2)cc1Cc1ccc(-n2cccn2)cc1` [Example 32, 5-methyl-4-[4-(1H-pyrazol-1-yl)benzyl]-N-(tetrahydro-2H-pyran-4-ylmethyl)pyridine-2-carboxamide], the figure is 4.6 µM; as for `Cc1cnc(C(=O)NC2CCOCC2)cc1Cc1ccc(-n2cccn2)cc1` [Example 33, 5-methyl-4-[4-(1H-pyrazol-1-yl)benzyl]-N-(tetrahydro-2H-pyran-4-yl)pyridine-2-carboxamide], 3.44 µM.
As for `Cc1cnc(C(=O)NCC2CCCO2)cc1Cc1ccc(-n2cccn2)cc1` (stereo not shown) [Example 35, 5-methyl-4-[4-(1H-pyrazol-1-yl)benzyl]-N-(tetrahydrofuran-2-ylmethyl)pyridine-2-carboxamide], the figure is 2.73 µM.

The values above are taken from US20160016907A1, “PYRIDINE DERIVATIVES AS MUSCARINIC M1 RECEPTOR POSITIVE ALLOSTERIC MODULATORS” (PFIZER INC., priority 2014, published 2016).
